For data set [1], the system named is CHO cells. The experiment in a line: Cytotoxicity, formazan-based proliferation assay and total protein assay, CHO cells. As to conditions: for cytotoxicity (cell proliferation/number as percentage of non-treated cells): 24 hours after addition. Here is the method: Cytotocixity experiments were also performed with CHO and L6 cells using a formazan-based proliferation assay and a total protein assay. The cells were seeded onto a 96-multiwell plate with an appropriate density of 1×10^4 cells per well. […] After another 24 hours, cell proliferation/number was determined and expressed as a percentage of non-treated cells.
Cytotoxicity was assessed using both a formazan-based proliferation assay (CellTiter 96 AQueous One Solution Cell Proliferation Assay kit, Promega) and a total protein-based assay (Pierce). Briefly, CHO cells were seeded onto a multi-well microtiter plate with an appropriate density, depending on the size of the well (e.g., 1×10^4 cells per well in a 96-well plate). After 48 h, MTS substrate was added to each well and the plate and incubated for 4 h at 37° C. in a humidified, 5% CO2 incubator. The amount of soluble formazan produced by cellular reduction of the substrates MTS was recorded at 490 nm using a multi-well plate reader. For the total protein-based proliferation assay, cells were lysed at the same time when transfection efficiency was assayed. A 5 μL of lysates were transferred to a separate multi-well plate. Total protein contents were assessed using the Coomassie Blue protein kit (Pierce, Rockford, Ill.) following the manufacturer protocol. Negative and positive controls were non-treated cells and commercial lipids treated cells, respectively. The proliferation results were expressed as percentages of non-treated cells.

In data set [2] the test system is Chinese hamster ovarian (CHO) cells. The experiment in a line: β-galactosidase reporter gene transfection in CHO cells. Type of data set: cell-based.
Protocol: The reporter gene was first mixed with the lipids in potassium phosphate buffer (PBS) at room temperature. We tested two different lipid/DNA ratios (5:1; and 20:1) while keeping the zwitterionic/DOTAP ratio constant at 1:1. Next, the lipid/DNA complexes were added to the cells. The amount of DNA used was the same as used in the naked DNA control (no lipid), and the negative control was compound 4 without DNA. After incubation at 37° C. and 5% CO2 for 2 h, the medium was removed and fresh growth medium was added. Transfection efficiencies were assessed after 48 h using the β-galactosidase enzyme assay in conjunction with a standard curve. The efficiency of each transfection was calculated as β-gal activity normalized to total protein.
Transfection assays were performed using the well established beta-galactosidase transfection assay. In these experiments the beta-galactosidase gene is transfected into cells. Next, the expressed enzyme then cleaves a chemiluminescent reporter that is detected. […]
Chinese hamster ovarian cells (CHO, ATCC, Manassas, Va.) were cultured in complete F12K media (ATCC) containing 10% fetal calf serum (Sigma) and 1% penicillin and streptomycin (500 IU/ml and 5000 μg/ml, respectively, Mediatech, Herndon, Va.) at 37° C. in 5% CO2 with humidity. […] Transfection efficiencies were assessed 24 h to 48 h post transfection depending on the experimental design. […]
For data set [3], the system named is CHO cells. The experiment in a line: Gene transfection efficiency in a cell population by optical microscopy. It counts as cell-based, Chinese hamster. The conditions noted are these: reporter gene β-gal. An excerpt:
Importantly, more than 70% of the cells had been transfected as compared to less than 40% when using other transfection reagents.
(In a reporter assay the amount or activity of a reporter protein is the signal.)

Data set [4] deals with GAPDH. Description: siRNA delivery, KDalert GAPDH gene knockdown assay. It counts as cell-based. As to conditions: 48 hr after siRNA transfection. As for the experimental part:
Trypsine adherent cells and dilute in normal growth medium to 1×10^5 cells per ml. […] Dilute RNA in serum free medium. Mix the diluted RNA with the transfectant reagent, incubate for 10 min at room temperature and dispense into a culture plate. Depending on the experimental design, the ration of lipid, siRNA, pH, and incubation time was varied. Overlay cell suspension onto the transfection mixture. Incubate at 37° C. and 5% CO2. Assay for gene knockdown were assessed after 48 h depending on the experimental protocol.
The gene knockdown assay performed was KDalert™ GAPDH Assay (Ambion) following the manufacturer protocol. Briefly, 48 hr after siRNA transfection, aspirate the culture medium from transfected cells. Add 200 μl KDalert Lysis Buffer to each sample well. Incubate at 4° C. for 20 min to lyse the cells. Pipet the cell lysate up and down 4-5 times to homogenize the lysate. Transfer 10 μl of each lysate or GAPDH Enzyme dilution (including the GAPDH Working Stock) to the wells of a clean 96 well plate. Working quickly, add 90 μl of KDalert Master Mix to each sample using a multi-channel pipettor to dispense the KDalert Master Mix quickly. Measure the increase in fluorescence of the samples at room temp. Using the reagent above we saw greater than 80% knockdown of the protein.

Data set [5] has as its system L6 cells. The experiment in a line: Cytotoxicity, formazan-based proliferation assay and total protein assay, L6 cells. Type of data set: cell-based. As to conditions: 24 hours after addition.
The subject of data set [6] is esterase.
Protocol: Next, we prepared vesicles of 4, 4/DOTAP, and DOPC/DOTAP. A chloroform solution containing 4, 4/DOTAP, or DOPC/DOTAP was added to a pear shaped flask and the solution was evaporated under vacuum leaving a thin film deposited onto the flask wall. One mL of Tris buffer (100 mM Tris, 100 mM NaCl, pH 7.4) was then added and the film was peeled off by vortexing. The milky aqueous suspension was extruded through a polycarbonate membrane (50 nm) using an Aventi polar lipids mini-extruder. After 20 extrusions, a homogeneous liposome solution was observed.
Data set [7] is described as follows: Transmission electron micrographs (TEM) of vesicles. Type of data set: physicochemical. An excerpt: (§1) It is likely that 4 will form bilayers. […] After 20 extrusions, a homogeneous liposome solution was observed.
Data set [8] is described as follows: Differential scanning calorimeter (DSC) trace of hydrated amphiphile. It counts as physicochemical. In general terms: In DSC, transitions show as peaks or steps in heat flow.
A short description of data set [9]: Liposome average diameter by dynamic light scattering. It counts as physicochemical. The conditions noted are these: extruded through 50 nm membrane, Tris buffer pH 7.4.
From the text: as §1

For data set [10], the system named is calf thymus DNA. The experiment in a line: Ethidium bromide displacement fluorescence assay. Type of data set: binding. As to conditions: fluorescence intensity as a function of vector/DNA charge ratio. As for the experimental part: The propensity of the lipids to bind DNA was measured via an ethidium bromide displacement fluorescence assay. This assay entailed measuring the reduction of the fluorescence intensity of the DNA-intercalated ethidium bromide, as this fluorescent probe is displaced by the cationic amphiphile. […] The results obtained with DOTAP, DOTAP/DOPE, and DOPC/DOTAP are consistent with previous reports. A 1:1 assembly is formed between the lipids and DNA.
Binding studies were carried out by competitive displacement fluorimetric assay with DNA-bound ethidium bromide. This assay involves the addition of aliquots of the compound to a 3 mL solution of EthBr (1.3 μM) and calf thymus DNA (3 μM) in buffer (100 mM NaCl, 100 mM Tris, pH 7.4) with the decrease of fluorescence (λexc=546 nm, λem=600 nm; 1 cm path length glass cuvette, slit width 3 nm) recorded after 5 min equilibrium time following each addition.

Read-outs that look alike come from different tables or passages of the source.

For the compound “1,2-Di-tetradecanoyl-3-Lys-Trp-Lys-rac-glycerol”, in data set [1] (CHO cells, Example 16, MTS and total protein assays), the cell cytotoxicity result is on record as “minimal cell cytotoxicity”. Also, the transfection capability result in data set [2] (CHO cells, Example 15, β-gal reporter gene) is recorded as “high transfection capability”. The cells transfected entry in [3] was “more than 70%”. Also, the “knockdown of the protein” value in [4] is “greater than 80%”.
For `NCCOP(=O)(O)OCC(COC(=O)CCCCCCCCCCC(=O)OCc1ccccc1)OC(=O)CCCCCCCCCCC(=O)OCc1ccccc1` (racemic) [1,2-Di-dodecanedioyl benzyl ester-3-phosphoethanolamine-rac-glycerol], the cell cytotoxicity result in data set [1] is listed as “minimal cell cytotoxicity”.
Turning to `C[N+](C)(C)CCOP(=O)([O-])OCC(COC(=O)CCCCCCCCCCC(=O)OCc1ccccc1)OC(=O)CCCCCCCCCCC(=O)OCc1ccccc1` (racemic) [Compound 4, 1,2-Di-dodecanedioyl benzyl ester-3-phosphocholine-rac-glycerol], the “cytotoxicity (cell proliferation/number as percentage of non-treated cells)” value in data set [5] and in data set [1] (CHO cells) was “None of the amphiphiles showed significant cytotoxicity” in each case. Moreover, the “time to loss of 4” value in [6] was “four”. The “time to complete hydrolysis of 4 to yield 5” value in data set [6] (esterase added to liposomes prepared from 4, HPLC) is 8 h. For the same compound, the “average size of vesicular organizations” value in data set [7] is “about 100 nM”. Further, in [8], the phase-transition temperature is approximately 44 °C. The “average diameter of the liposomes” value in data set [9] is recorded as 79 nm. In addition, the “transfection efficiency (β-gal activity normalized to total protein)” value in data set [2] (assessed after 48 h, result in words) is reported as “does not transfect DNA”. For the same compound, the “displacement of DNA-intercalated ethidium bromide (fluorescence intensity)” value (“displacement” below) in [10] is “do not displace EtBr”.
With `CCCCCCCC/C=C\CCCCCCCC(=O)OC[C@H](COP(=O)([O-])OCC[N+](C)(C)C)OC(=O)CCCCCCC/C=C\CCCCCCCC` [DOPC, dioleylphosphatidyl choline], the “displacement” value in [10] is “do not displace EtBr”.
Same read-out and setting: the same measure for `CCCCCCCC/C=C\CCCCCCCC(=O)OC[C@H](COP(=O)(O)OCCN)OC(=O)CCCCCCC/C=C\CCCCCCCC` [DOPE, dioleylphosphatidyl ethanolamine]: “do not displace EtBr”.
With `CCCCCCCC/C=C\CCCCCCCC(=O)OCC(C[N+](C)(C)C)OC(=O)CCCCCCC/C=C\CCCCCCCC` (stereo not shown) [DOTAP, 1,2-dioleoyloxy-3-(trimethylammonio)-propane, reference compound], the “cytotoxicity (cell proliferation/number as percentage of non-treated cells)” value in [5] and in data set [1] (CHO cells) was “None of the amphiphiles showed significant cytotoxicity” in each case. Moreover, in [10], the “displacement” value is recorded as “fluorescence intensity decreases”.

Values taken from patent publication US20090221684A1, “Molecules for Gene Delivery and Gene Therapy, and Methods of Use Thereof” (priority 2005, published 2009).
